Measured values from patent US12409192B2, “Traditional Chinese medicine composition and use thereof” (JIANGSU KANION PHARMACEUTICAL CO., LTD, priority 2021, dated 2025).

Tested on: fever induced by dry yeast in rats
Experiment: Dry yeast-induced fever in rats
Assay type: in vivo
Settings: composition 3.34 g crude drugs/kg, aspirin 0.20 g/kg, X ± SD, n = 10
Description: Male SD rats, weighing 180-220 g were fed adaptively for 1 week, with the environmental temperature maintained at 20-25° C. The rectal temperature of the rats was measured once daily at 10:00 am for two consecutive days to acclimate them to this procedure. The average of the two temperature measurements was taken as the baseline temperature. Rats with a temperature range of 37.0-38.6° C. and a fluctuation <0.5° C. were selected for the experiment. Each rat was subcutaneously injected with 10 ml/kg of a 20% suspension of dry yeast to induce fever. (Preparation method: 120 g of dry yeast was weighed and placed in a mortar, gradually adding distilled water to grind into a uniform suspension, and then adjusted to a volume of 600 mL, prepare this solution fresh.) Six hours after injecting the yeast suspension, the body temperature of the rats was measured. One hundred and seventy rats with a temperature increase ranging from 1.0 to 2.2 degrees Celsius were selected and randomly divided into 17 groups based on their temperatures. […] Each group was orally gavaged with the corresponding solvent or drug, and rectal temperature was measured at 1 h, 2 h, 3 h, 4 h, and 5 h after administration to calculate the temperature difference from baseline.
Male SD rats, weighing 180-220 g were fed adaptively for 1 week, with the environmental temperature maintained at 20-25° C. The rectal temperature of the rats was measured once daily at 10:00 am for two consecutive days to acclimate them to this procedure. The average of the two temperature measurements was taken as the baseline temperature. Rats with a temperature range of 37.0-38.6° C. and a fluctuation <0.5° C. were selected for the experiment. Each rat was subcutaneously injected with 10 ml/kg of a 20% suspension of dry yeast to induce fever. (Preparation method: 120 g of dry yeast was weighed and placed in a mortar, gradually adding distilled water to grind into a uniform suspension, and then adjusted to a volume of 600 mL, prepare this solution fresh.) Six hours after injecting the yeast suspension, the body temperature of the rats was measured. Ninety rats with a temperature increase ranging from 1.0 to 2.2 degrees Celsius were selected and randomly divided into 9 groups based on their temperatures. These groups were as follows: (1) Model group: administered distilled water, (2) 7 batches of traditional Chinese medicine groups P-V: dosage of 3.34 g crude drugs/kg, (3) Positive control group: administered aspirin suspension, dosage of 0.20 g/kg. Each group was orally gavaged with the corresponding solvent or drug, and rectal temperature was measured at 1 h, 2 h, 3 h, 4 h, and 5 h after administration to calculate the temperature difference from baseline.

## CC(=O)Oc1ccccc1C(=O)O [Aspirin, aspirin]
1 h after oral gavage
  Temperature rise degrees after administration of medication (ΔT), 1 h: 0.40 ± 0.24 degrees
2 h after oral gavage
  Temperature rise degrees after administration of medication (ΔT), 2 h: 0.34 ± 0.37 degrees
3 h after oral gavage
  Temperature rise degrees after administration of medication (ΔT), 3 h: 0.27 ± 0.28 degrees
4 h after oral gavage
  Temperature rise degrees after administration of medication (ΔT), 4 h: 0.22 ± 0.23 degrees
5 h after oral gavage
  Temperature rise degrees after administration of medication (ΔT), 5 h: 0.22 ± 0.24 degrees
Verification study, 1 h after oral gavage
  Degrees of temperature rise after administration of medication (ΔT), 1 h: 0.42 ± 0.34 Degrees
Verification study, 2 h after oral gavage
  Degrees of temperature rise after administration of medication (ΔT), 2 h: 0.42 ± 0.31 Degrees
Verification study, 3 h after oral gavage
  Degrees of temperature rise after administration of medication (ΔT), 3 h: 0.34 ± 0.31 Degrees
Verification study, 4 h after oral gavage
  Degrees of temperature rise after administration of medication (ΔT), 4 h: 0.23 ± 0.30 Degrees
Verification study, 5 h after oral gavage
  Degrees of temperature rise after administration of medication (ΔT), 5 h: 0.17 ± 0.13 Degrees
